{
  "source": "patent US20090239868A1",
  "about": "(priority 2007, published 2009)",
  "key": {"[1]": {"tested_on": "TGF-β induced PAI-1 production", "experiment": "TGF-β induced PAI-1 production in HT1080 cells (Western blotting)", "format": "cell-based", "conditions": "Homo sapiens, HT-1080, TGF-β1 10 ng/mL, 6-hours incubation", "experimental": "After incubating HT1080 cells for 48 hours in the MEM medium containing 10% FBS (Fetal Bovine Serum), the medium was changed to a MEM medium containing 1% FBS, and TGF-β1 (final concentration: 10 ng/mL) only, or TGF-β1 (final concentration: 10 ng/mL) and the test substances were added and incubated. As a control, a culture solution without neither TGF-β1 nor the test substances was prepared. After 6-hours incubation, the culture fluids were collected, and the PAI-1 amounts in the culture fluids were measured by the Western blotting. The PAI-1 amount when TGF-β1 only was added being “100%,” and the PAI-1 amount in the control being “0%,” PAI-1 amounts at each concentration of the test substances (PAI-1 inhibition ratios) were calculated, and the concentrations of the compounds, which inhibited PAI-1 production to 50% (IC50) in amount, were obtained."}, "[2]": {"tested_on": "TGF-β induced PAI-1 production", "experiment": "TGF-β induced PAI-1 production in HepG2 cells (Human Serpin E1/PAI-1 DuoSet)", "format": "cell-based", "description": "HepG2 cells were seeded on a 96-well culture plate by 2×10^4 cells/well, and were incubated for 24 hours in the MEM medium containing 1% NEAA (Non-Essential Amino Acids), 1 mM pyruvate, and 10% FBS. Then, the medium was changed to a MEM medium containing 1% NEAA, 1 mM pyruvate and 1% FBS, and the cells were further incubated for 24 hours. Subsequently, after the medium was changed to a MEM medium containing 1% NEAA, 1 mM pyruvate and 1% FBS, and then the cells were treated with the test substances (final concentration: 1 μM or 0.1 μM) for one hour, TGF-β1 (final concentration: 1 ng/mL) was added and the cells were further incubated for 24 hours. As controls, a culture solution added TGF-β1 only, and a culture solution cultured without neither the test substances nor TGF-β1 were prepared. After the incubation, the PAI-1 amount was measured using Human Serpin E1/PAI-1 DuoSet (R&D Systems). The PAI-1 amount when treated with TGF-β1 only being “100%”, and the PAI-1 amount when treated without neither the test substances nor TGF-β1 being “0%”, the PAI-1 inhibition ratios of each test substance were calculated."}, "PAI-1 [3]": {"tested_on": "PAI-1", "experiment": "PAI-1 concentration in plasma of type II diabetes patients with obesity (Human PAI-1 ELISA Kit)", "format": "in vivo", "conditions": "200 mg orally twice a day for 12 weeks, plasma at 2, 4, 8, 12 weeks, FIG. 1", "experimental": "To 10 patients of the type II diabetes with obesity where PAI-1 overproduction was recognized, the compound (1) was administered orally 200 mg each time twice a day (after breakfast and after dinner) for 12 weeks. Blood was collected from each patient just before the administration of the compound (1) and 2, 4, 8, and 12 weeks later, and the PAI-1 concentration in plasma was measured using Human PAI-1 ELISA Kit (AssayPro)."}, "PAI-1 [4]": {"tested_on": "PAI-1", "experiment": "Immunostaining of PAI-1 expression cells among cells infiltrated in the lung, cigarette smoke exposed guinea pigs", "format": "in vivo, guinea pig", "experimental": "Using the smoking exposure system (INH06-CIGOIA, MIPS Inc.), 6-week old guinea pigs (Std: male Hartley, Japan SLC, Inc.) were exposed to smoke of 40 cigarettes (Peace (Registered Trademark), Japan Tobacco, Inc.) a day (20 cigarettes twice) for 25 continuous days (Chronic Obstructive Pulmonary Disease (COPD) model group: Control group: n=10). To these guinea pigs, from the day of exposure to the smoke of tobacco, the compound (1) (30 mg/kg/day or 100 mg/kg/day) or prednisolone (10 mg/kg/day) was continuously administered orally once a day for 25 days (Compound (1) 30 mg administered group: n=5, Compound (1) 100 mg administered group: n=5, Prednisolone administered group: n=5). Furthermore, as a normal group, guinea pigs (n=5) exposed to air without the administration of the compound (1) and prednisolone were prepared. On the following day of the last exposure, after preparing paraffin sections in the lungs of each guinea pig, collagen was stained by the Masson-trichrome method, and the accumulations of collagen in the alveoli were measured by the area rate with the image analysis.\nNext, the above paraffin section was stained by the immunostaining method using an anti PAI-1 antibody (PAI-1H-135; Santa Cruz; 250-fold dilution), and the ratio of PAI-1 expression cells to the total cell numbers infiltrated in the lung was measured. […]"}, "[5]": {"tested_on": "mustard oil infusion rats (cystitis rat)", "experiment": "Bladder fibrosis score, mustard oil infusion rats (cystitis rat), Azan stain", "format": "in vivo", "conditions": "100 mg/kg/day orally for 10 days; control 2.6±0.1; p<0.01 Wilcoxon test", "experimental": "A polyethylene tube was inserted to the urethra of the 7 week-old rats (SPF: male Crj, Charles River Japan, Inc), and 0.4 mL of 5% mustard oil (diluted with liquid paraffin including 20% allyl isothiocyanate) was infused into the bladder. 60 minutes later, after withdrawing the liquid in the bladder with suctioning, the inside of the bladder was rinsed with saline. For 10 days including 3 days before the infusion of the mustard oil and 7 days after the infusion of the mustard oil, the compound (1) (100 mg/kg/day) was orally administered once a day (Compound (1) administered rat: n=6). Furthermore, as a control, mustard oil infusion rats (cystitis rat: n=6) to which the compound (1) was not administered were prepared. On the 8th day after the infusion of the mustard, the bladders were removed to prepare paraffin sections, the degrees of fibrosis were scored by Azan stain, and the evaluations were conducted. For the index of the scoring, those that have no abnormalities to the normal tissues being “1,” those that have minor fibrosis being “2,” those that have mild fibrosis being “3,” those that have moderate fibrosis being “4,” and those that have severe fibrosis being “5” were used. As a result, although the score of the control group was 2.6±0.1, the compound (1) administered group was 2.0±0.2, and a significant difference was confirmed (p<0.01: Wilcoxon test)."}, "[6]": {"tested_on": "cardiac infarction (ischemia-reperfusion) model rats", "experiment": "Fibrosis ratio in left ventricle cardiac muscle, cardiac infarction (ischemia-reperfusion) model rats, Azan-Mallory stain", "format": "in vivo, rat", "conditions": "p.o., once a day for 28 days, control 7.5 ± 1.1", "experimental": "After the 8-week old rats (SPF: male SD, Japan SLC, Inc.) were anesthetized with Pentobarbital Sodium, their hearts were exteriorized, and the left anterior descending coronary arteries (LAD) were ligated by a suture needle with a thread. 30 minutes later, the ligations were removed, and the blood was reperfused for 24 hours. After that, the compound (1) (10 mg/kg/day, 30 mg/kg/day, 100 mg/kg/day) was orally administered once a day for 28 continuous days. Moreover, as a control, rats to which the compound (1) was not administered after the reperfusion (cardiac infarction (ischemia-reperfusion) model rats) were prepared. On the 29th day after the reperfusion, after preparing paraffin sections of cardiac muscle in the left ventricle of each rat, Azan-Mallory stain was carried out, the ratios of the stained area occupying the myocardial necrosis distant sites were obtained as the ratios of fibrosis by the image analyses."}, "[7]": {"tested_on": "PAI-1 gene expression induced by PMA", "conditions": "J. Immunol., Vol. 165, pp. 3154-3161, 2000; cited from earlier work"}},
  "note": "Entries after “also recorded” stand apart in the source; their conditions may differ.",
  "data": [
    {"smiles": "O=C(Nc1cc(C(F)(F)F)ccc1C(F)(F)F)c1cc(Br)ccc1O", "note": "[(3)]", "values": [
      {"measurement": "IC50", "setting": "[1]", "result": 83, "unit": "nM"},
      {"measurement": "Inhibition Ratio (PAI-1)", "setting": "[2]; Compound Concentration: 1 μM", "result": ">90", "unit": "%"}
    ]},
    {"smiles": "O=C(Nc1cc(C(F)(F)F)cc(C(F)(F)F)c1)c1cc(Cl)ccc1OC(=O)N1CCOCC1", "note": "[Compound (1)]", "values": [
      {"measurement": "concentration of PAI-1 in blood", "setting": "PAI-1 [3]", "result": "decreased"},
      {"measurement": "total number of the infiltrating cells versus normal group", "setting": "PAI-1 [4]; compound (1) 100 mg administered group", "result": "at the same level"},
      {"measurement": "ratio of PAI-1 expression cells to the total number of infiltrating cells in the lung", "setting": "PAI-1 [4]; oral once a day for 25 days, FIG. 3", "result": "decreased; also recorded: improved to the level of the normal group"},
      {"measurement": "fibrosis score (1 no abnormalities to 5 severe fibrosis)", "setting": "[5]", "result": "2.0±0.2"},
      {"measurement": "Fibrosis ratio", "setting": "[6]; 10 mg/kg", "result": "5.5 ± 0.4", "unit": "%"},
      {"measurement": "Fibrosis ratio", "setting": "[6]; 30 mg/kg", "result": "4.9 ± 0.4", "unit": "%"},
      {"measurement": "Fibrosis ratio", "setting": "[6]; 100 mg/kg", "result": "4.3 ± 0.5", "unit": "%"}
    ]},
    {"smiles": "C[C@@H]1C[C@@H]([C@H](O)CC2CC(=O)NC(=O)C2)C(=O)[C@@H](C)C1", "note": "[cycloheximide]", "values": [
      {"measurement": "PAI-1 gene expression induced by PMA", "setting": "[7]", "result": "inhibiting substance"}
    ]},
    {"smiles": "O=C(Nc1cc(C(F)(F)F)cc(C(F)(F)F)c1)c1cc(I)ccc1O", "note": "[(7)]", "values": [
      {"measurement": "Inhibition Ratio (PAI-1)", "setting": "[2]; Compound Concentration: 1 μM", "result": ">90", "unit": "%"}
    ]},
    {"smiles": "CC(=O)Oc1ccc(Cl)cc1C(=O)Nc1cc(C(F)(F)F)cc(C(F)(F)F)c1", "note": "[(32)]", "values": [
      {"measurement": "Inhibition Ratio (PAI-1)", "setting": "[2]; Compound Concentration: 1 μM", "result": ">90", "unit": "%"}
    ]},
    {"smiles": "O=C(Nc1cc(C(F)(F)F)cc(C(F)(F)F)c1)c1ccc(Cl)cc1O", "note": "[(33)]", "values": [
      {"measurement": "Inhibition Ratio (PAI-1)", "setting": "[2]; Compound Concentration: 0.1 μM", "result": 63.3, "unit": "%"},
      {"measurement": "Inhibition Ratio (PAI-1)", "setting": "[2]; Compound Concentration: 1 μM", "result": ">90", "unit": "%"}
    ]},
    {"smiles": "O=C(Nc1ccc(SC(F)(F)F)cc1)c1cc(Cl)ccc1O", "note": "[(83)]", "values": [
      {"measurement": "Inhibition Ratio (PAI-1)", "setting": "[2]; Compound Concentration: 1 μM", "result": ">90", "unit": "%"}
    ]},
    {"smiles": "O=C(Nc1cccc(-c2ccccc2)c1)c1cc(Cl)ccc1O", "note": "[(52)]", "values": [
      {"measurement": "Inhibition Ratio (PAI-1)", "setting": "[2]; Compound Concentration: 1 μM", "result": 81.0, "unit": "%"}
    ]},
    {"smiles": "O=C(Nc1ccc(OC(F)F)cc1)c1cc(Cl)ccc1O", "note": "[(90)]", "values": [
      {"measurement": "Inhibition Ratio (PAI-1)", "setting": "[2]; Compound Concentration: 1 μM", "result": ">90", "unit": "%"}
    ]},
    {"smiles": "CC(C)(CCc1ccccc1)c1ccc(O)c(C(=O)Nc2cc(C(F)(F)F)cc(C(F)(F)F)c2)c1", "note": "[(18)]", "values": [
      {"measurement": "Inhibition Ratio (PAI-1)", "setting": "[2]; Compound Concentration: 1 μM", "result": 55.4, "unit": "%"}
    ]},
    {"smiles": "O=C(Nc1cc(C(F)(F)F)cc(C(F)(F)F)c1)c1cc(Cl)ccc1O", "note": "[(2)]", "values": [
      {"measurement": "IC50", "setting": "[1]", "result": 5, "unit": "nM"},
      {"measurement": "Inhibition Ratio (PAI-1)", "setting": "[2]; Compound Concentration: 0.1 μM", "result": 94.8, "unit": "%"},
      {"measurement": "Inhibition Ratio (PAI-1)", "setting": "[2]; Compound Concentration: 1 μM", "result": ">90", "unit": "%"},
      {"measurement": "IC50", "setting": "[2]; Homo sapiens, TGF-β1 1 ng/mL, 24 hours", "result": "~50", "unit": "nM"}
    ]},
    {"smiles": "O=C(Nc1cc(C(F)(F)F)cc(C(F)(F)F)c1)c1ccccc1O", "note": "[(4)]", "values": [
      {"measurement": "Inhibition Ratio (PAI-1)", "setting": "[2]; Compound Concentration: 1 μM", "result": ">90", "unit": "%"}
    ]},
    {"smiles": "O=C(Nc1cc(C(F)(F)F)cc(C(F)(F)F)c1)c1cc(Cl)cc(Cl)c1O", "note": "[(57)]", "values": [
      {"measurement": "Inhibition Ratio (PAI-1)", "setting": "[2]; Compound Concentration: 1 μM", "result": ">90", "unit": "%"}
    ]}
  ]
}
